pEC50: −log10 of the molar value.
target: T1, GLP-1 Receptor (Homo sapiens, UniProt P43220); test: GLP-1R agonist cAMP stimulation assay (HEK293/GLP1R/CRE-LUC cells, Cisbio cAMP dynamic 2 kit); format: cell-based; conditions: HEK293/CRE-Luc cells stably expressing the GLP-1 Receptor, 30 min at 37° C.
T1 construct: host or cells: HEK293/CRE-Luc (HEK293/GLP1R/CRE-LUC)
Experimental: Activation of GLP-1 receptor is known to stimulate cyclic AMP (cAMP) production in cells which indicates primary coupling to the Gas subunit of the G protein heterotrimeric complex.
To optimize functional activity directed toward Gas coupling, a HEK293/CRE-Luc cell line developed by HDB stably expressing the GLP-1 Receptor was used. 200× concentration of compound working solutions were prepared (Agilent Technologies Bravo) with ½ log serial dilution in 384-well Echo LDV plate (Labcyte, Cat #LP-0200). […] 200× concentration of compound working solutions were moved to 384-well white low volume plate (Greiner, Cat #784075) using Labcyte ECHO550. 1×10^5 cells/mL HEK293/GLP1R/CRE-LUC (HD Biosciences) cell suspensions prepared with assay buffer [DPBS containing 0.5 mM IBMX (Sigma, Cat #15879) and 0.1% BSA (GENVIEW, Cat #FA016-100g)], 10 μL cell suspensions were added to each well of previous generated assay plate which already contains […] compound at 200×concentration using ThermoFisher Multidrop Combi (1000 cells/well). Seal the plate and incubate at 37° C. with 5% CO2 for 30 min.
After incubation the cAMP assay signal was generated using cAMP dynamic 2 Kit (Cisbio). 5 μL cAMP-d2 working solution was added to each well, followed with 5 μL Anti-cAMP antibody-cryptate working solution added to each well using ThermoFisher Multidrop Combi. Incubate at room temperature for 1 hour protected from light. Read the fluorescence at 665 and 615 nm with Reader PerkinElmer EnVision.

T1 sequence (P43220 24-463, species assumed): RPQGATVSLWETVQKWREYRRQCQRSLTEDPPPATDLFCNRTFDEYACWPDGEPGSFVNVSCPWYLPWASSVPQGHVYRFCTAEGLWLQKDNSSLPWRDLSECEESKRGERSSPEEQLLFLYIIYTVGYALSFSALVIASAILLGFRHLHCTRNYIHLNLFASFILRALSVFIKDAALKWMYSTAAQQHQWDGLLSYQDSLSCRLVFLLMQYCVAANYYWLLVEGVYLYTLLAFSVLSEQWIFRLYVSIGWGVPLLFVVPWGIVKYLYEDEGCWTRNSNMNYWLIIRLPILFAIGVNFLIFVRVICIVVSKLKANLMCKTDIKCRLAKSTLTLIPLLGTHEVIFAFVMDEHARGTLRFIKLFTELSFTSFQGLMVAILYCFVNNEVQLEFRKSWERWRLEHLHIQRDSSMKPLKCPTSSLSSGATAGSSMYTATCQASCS

SMILES	pEC50
C[C@]1(c2ccc(Cl)cn2)Oc2cccc(C3CCN(Cc4nc5cc(-c6noc(=O)[nH]6)cc(F)c5n4C[C@@H]4CCO4)CC3)c2O1 [Compound 37, 3-(2-((4-((S)-2-(5-chloropyridin-2-yl)-2-methylbenzo[d][1,3]dioxol-4-yl)piperidin-1-yl)methyl)-7-fluoro-1-(((S)-oxetan-2-yl)methyl)-1H-benzo[d]imidazol-5-yl)-1,2,4-oxadiazol-5(4H)-one]	7.00 to 9.00
O=c1[nH]c(-c2cc(F)c3c(c2)nc(CN2CCC(c4cccc(OCc5ccc(Cl)cc5F)n4)CC2)n3C[C@@H]2CCO2)no1 [Compound 38, (S)-3-(2-((4-(6-((4-chloro-2-fluorobenzyl)oxy)pyridin-2-yl)piperidin-1-yl)methyl)-7-fluoro-1-(oxetan-2-ylmethyl)-1H-benzo[d]imidazol-5-yl)-1,2,4-oxadiazol-5(4H)-one]	7.00 to 9.00
CC1(c2ccc(Cl)cc2F)Oc2cccc(C3=CCN(Cc4nc5cc(-c6noc(=O)[nH]6)cc(F)c5n4C[C@@H]4CCO4)CC3)c2O1 (stereo partly drawn) [Compound 39, 3-(2-((4-(2-(4-chloro-2-fluorophenyl)-2-methylbenzo[d][1,3]dioxol-4-yl)-3,6-dihydropyridin-1(2H)-yl)methyl)-7-fluoro-1-(((S)-oxetan-2-yl)methyl)-1H-benzo[d]imidazol-5-yl)-1,2,4-oxadiazol-5(4H)-one]	7.00 to 9.00
Cc1nnc(-c2ccc3c(nc(CN4CCC(c5cccc6c5O[C@@](C)(c5ccc(Cl)cc5F)O6)CC4)n3C[C@@H]3CCO3)c2F)[nH]1 [Compound 40, 2-((4-((S)-2-(4-chloro-2-fluorophenyl)-2-methylbenzo[d][1,3]dioxol-4-yl)piperidin-1-yl)methyl)-4-fluoro-5-(5-methyl-4H-1,2,4-triazol-3-yl)-1-(((S)-oxetan-2-yl)methyl)-1H-benzo[d]imidazole]	> 9.00
Cc1nnc(-c2cc(F)c3c(c2)nc(CN2CCC(c4cccc5c4O[C@@](C)(c4ccc(Cl)cc4F)O5)CC2)n3C[C@@H]2CCO2)[nH]1 [Compound 41, 2-((4-((S)-2-(4-chloro-2-fluorophenyl)-2-methylbenzo[d][1,3]dioxol-4-yl)piperidin-1-yl)methyl)-7-fluoro-5-(5-methyl-4H-1,2,4-triazol-3-yl)-1-(((S)-oxetan-2-yl)methyl)-1H-benzo[d]imidazole]	> 9.00
Cc1nnc(-c2cc(F)c3c(c2)nc(CN2CCC(c4cccc5c4O[C@@](C)(c4ccc(Cl)cn4)O5)CC2)n3C[C@@H]2CCO2)[nH]1 [Compound 42, 2-((4-((S)-2-(5-chloropyridin-2-yl)-2-methylbenzo[d][1,3]dioxol-4-yl)piperidin-1-yl)methyl)-7-fluoro-5-(5-methyl-4H-1,2,4-triazol-3-yl)-1-(((S)-oxetan-2-yl)methyl)-1H-benzo[d]imidazole]	> 9.00
Cc1nnc(-c2cc(F)c3c(c2)nc(CN2CC=C(c4cccc5c4OC(C)(c4ccc(Cl)cc4F)O5)CC2)n3C[C@@H]2CCO2)[nH]1 (stereo partly drawn) [Compound 43, 2-((4-(2-(4-chloro-2-fluorophenyl)-2-methylbenzo[d][1,3]dioxol-4-yl)-3,6-dihydropyridin-1(2H)-yl)methyl)-7-fluoro-5-(5-methyl-4H-1,2,4-triazol-3-yl)-1-(((S)-oxetan-2-yl)methyl)-1H-benzo[d]imidazole]	7.00 to 9.00
C[C@]1(c2ccc(Cl)cc2F)Oc2cccc(C3=CCN(Cc4nc5cc(-c6nnc(C(F)(F)F)[nH]6)ncc5n4C[C@@H]4CCO4)CC3)c2O1 [Compound 44, 2-((4-((S)-2-(4-chloro-2-fluorophenyl)-2-methylbenzo[d][1,3]dioxol-4-yl)-3,6-dihydropyridin-1(2H)-yl)methyl)-3-(((S)-oxetan-2-yl)methyl)-6-(5-(trifluoromethyl)-4H-1,2,4-triazol-3-yl)-3H-imidazo[4,5-c]pyridine]	> 9.00
C[C@]1(c2ccc(Cl)cc2F)Oc2cccc(C3=CCN(Cc4nc5cc(-c6nnc(C(F)(F)F)[nH]6)cnc5n4C[C@@H]4CCO4)CC3)c2O1 [Compound 45, 2-((4-((S)-2-(4-chloro-2-fluorophenyl)-2-methylbenzo[d][1,3]dioxol-4-yl)-3,6-dihydropyridin-1(2H)-yl)methyl)-3-(((S)-oxetan-2-yl)methyl)-6-(5-(trifluoromethyl)-4H-1,2,4-triazol-3-yl)-3H-imidazo[4,5-b]pyridine]	> 9.00
C[C@]1(c2ccc(Cl)cc2F)Oc2cccc(C3=CCN(Cc4nc5cc(-c6nnc(C(F)(F)F)[nH]6)nnc5n4C[C@@H]4CCO4)CC3)c2O1 [Compound 46, 6-((4-((S)-2-(4-chloro-2-fluorophenyl)-2-methylbenzo[d][1,3]dioxol-4-yl)-3,6-dihydropyridin-1(2H)-yl)methyl)-7-(((S)-oxetan-2-yl)methyl)-3-(5-(trifluoromethyl)-4H-1,2,4-triazol-3-yl)-7H-imidazo[4,5-c]pyridazine]	> 9.00
Fc1cc(Cl)ccc1COc1ccc(F)c(C2CCN(Cc3nc4cc(-c5nnc(C(F)(F)F)[nH]5)ncc4n3C[C@@H]3CCO3)CC2)n1 [Compound 47, 6-[(4-chloro-2-fluorophenyl)methoxy]-3-fluoro-2-{1-[(3-{[(2S)-oxetan-2-yl]methyl}-6-[5-(trifluoromethyl)-4H-1,2,4-triazol-3-yl]-3H-imidazo[4,5-c]pyridin-2-yl)methyl]piperidin-4-yl}pyridine]	> 9.00
Fc1cc(Cl)ccc1COc1nc(N2CCN(Cc3nc4cc(-c5nnc(C(F)(F)F)[nH]5)ncc4n3C[C@@H]3CCO3)CC2)c(F)cc1F [Compound 48, 1-{6-[(4-chloro-2-fluorophenyl)methoxy]-3,5-difluoropyridin-2-yl}-4-[(3-{[(2S)-oxetan-2-yl]methyl}-6-[5-(trifluoromethyl)-4H-1,2,4-triazol-3-yl]-3H-imidazo[4,5-c]pyridin-2-yl)methyl]piperazine]	> 9.00
Fc1cc(Cl)ccc1COc1nc(C2CCN(Cc3nc4cc(-c5nnc(C(F)(F)F)[nH]5)ncc4n3C[C@@H]3CCO3)CC2)c(F)cc1F [Compound 49, 2-[(4-chloro-2-fluorophenyl)methoxy]-3,5-difluoro-6-{1-[(3-{[(2S)-oxetan-2-yl]methyl}-6-[5-(trifluoromethyl)-4H-1,2,4-triazol-3-yl]-3H-imidazo[4,5-c]pyridin-2-yl)methyl]piperidin-4-yl}pyridine]	> 9.00
Fc1cc(Cl)ccc1COc1nc(C2CCN(Cc3nc4cc(-c5nnc(C(F)(F)F)[nH]5)nnc4n3C[C@@H]3CCO3)CC2)c(F)cc1F [Compound 50, 2-[(4-chloro-2-fluorophenyl)methoxy]-3,5-difluoro-6-{1-[(7-{[(2S)-oxetan-2-yl]methyl}-3-[5-(trifluoromethyl)-4H-1,2,4-triazol-3-yl]-7H-imidazo[4,5-c]pyridazin-6-yl)methyl]piperidin-4-yl}pyridine]	> 9.00
O=C1CN(Cc2nc3cc(-c4nnc(C(F)(F)F)[nH]4)ncc3n2C[C@@H]2CCO2)CCN1c1ccc(F)c(OCc2ccc(Cl)cc2F)c1 [Compound 51, 1-{3-[(4-chloro-2-fluorophenyl)methoxy]-4-fluorophenyl}-4-[(3-{[(2S)-oxetan-2-yl]methyl}-6-[5-(trifluoromethyl)-4H-1,2,4-triazol-3-yl]-3H-imidazo[4,5-c]pyridin-2-yl)methyl]piperazin-2-one]	> 9.00
O=C1CN(Cc2nc3cc(-c4nnc(C(F)(F)F)[nH]4)ncc3n2C[C@@H]2CCO2)CCN1c1ccc(F)c(OCc2ccc(Cl)cc2F)n1 [Compound 52, 1-{6-[(4-chloro-2-fluorophenyl)methoxy]-5-fluoropyridin-2-yl}-4-[(3-{[(2S)-oxetan-2-yl]methyl}-6-[5-(trifluoromethyl)-4H-1,2,4-triazol-3-yl]-3H-imidazo[4,5-c]pyridin-2-yl)methyl]piperazin-2-one]	> 9.00
CC1(c2ccc(F)cc2F)Oc2cccc(C3CCN(Cc4nc5cc(-c6nnc(C(F)(F)F)[nH]6)cnc5n4C[C@@H]4CCO4)CC3)c2O1 (stereo partly drawn) [Compound 53, 4-[2-(2,4-difluorophenyl)-2-methyl-2H-1,3-benzodioxol-4-yl]-1-[(3-{[(2S)-oxetan-2-yl]methyl}-6-[5-(trifluoromethyl)-4H-1,2,4-triazol-3-yl]-3H-imidazo[4,5-b]pyridin-2-yl)methyl]piperidine]	> 9.00
CC1(c2ccc(F)cc2F)Oc2cccc(C3CCN(Cc4nc5cc(-c6nnc(C(F)(F)F)[nH]6)ncc5n4C[C@@H]4CCO4)CC3)c2O1 (stereo partly drawn) [Compound 54, 4-[2-(2,4-difluorophenyl)-2-methyl-2H-1,3-benzodioxol-4-yl]-1-[(3-{[(2S)-oxetan-2-yl]methyl}-6-[5-(trifluoromethyl)-4H-1,2,4-triazol-3-yl]-3H-imidazo[4,5-c]pyridin-2-yl)methyl]piperidine]	> 9.00
Cc1ccc(C2(C)Oc3cccc(C4CCN(Cc5nc6cc(-c7nnc(C(F)(F)F)[nH]7)ncc6n5C[C@@H]5CCO5)CC4)c3O2)cn1 (stereo partly drawn) [Compound 55, 2-methyl-5-[2-methyl-4-{1-[(3-{[(2S)-oxetan-2-yl]methyl}-6-[5-(trifluoromethyl)-4H-1,2,4-triazol-3-yl]-3H-imidazo[4,5-c]pyridin-2-yl)methyl]piperidin-4-yl}-2H-1,3-benzodioxol-2-yl]pyridine]	> 9.00

— US20250250269A1, “HETEROCYCLIC GLP-1 AGONISTS” (Gasherbrum Bio, Inc., priority 2022, published 2025)
